The text below walks through data of US6498251B1, “Tetrahydrobenzindole derivatives” (Meiji Seika Kaisha, Ltd., priority 1997, dated 2002).

Structures are written as SMILES. Some results are limits rather than exact numbers.

The target of one assay is T1, 5-HT2 receptor (Rattus norvegicus, UniProt P14842).
T1 construct: Rat cerebral cortex was homogenized; from tissue; host or cells: rat cerebral cortex, P2 membrane fraction
The assay is described as follows: Binding affinity for 5-HT2 receptor ([3H]ketanserin binding, rat cerebral cortex P2 fraction). Particulars: [3H]ketanserin 1 nM, 37° C. 15 minutes, Ki calculated from IC50. Here is the method: Test Example 2 Binding Affinity for 5-HT2 Rector
Rat cerebral cortex was homogenized in 10 volumes of 0.32 M sucrose solution and centrifuged for 10 minutes at 900×g, and the resulting supernatant fluid was again centrifuged for 20 minutes at 11,500×g. The thus obtained precipitate was re-suspended in 50 mM Tris-HCl (pH 7.4) buffer and centrifuged for 20 minutes at 39,900×g, and the thus obtained precipitate was used as P2 fraction.
The P2 fraction was incubated at 37° C. for 15 minutes in 50 mM Tris-HCl (pH 7.4) buffer containing 1 nM of [^3H]ketanserin and each of the compounds of the invention and then filtered after the reaction using Whatman GF/B glass filter. The radioactivity on the filter was measured using a liquid scintillation counter. Non-specific binding was determined by 10 μM ketanserin, and the specific binding was calculated based on the difference therefrom. The IC50 value was calculated from the inhibition curve of each compound, and the binding inhibition constant Ki was calculated from the value.

Assay [1] addresses T2, human serotonin 5-HT7 receptor subtype (Homo sapiens, UniProt P34969).
T2 construct: expressed in transfected cells
Put plainly: Binding affinity for 5-HT7 receptor ([3H]-5CT binding test). Particulars: for Ki: [3H]-5CT 1 nM, membrane fraction of cells expressing human 5-HT7, 37° C. 30 minutes, Ki calculated from IC50; for 5-HT2/5-HT7: ratio of Ki of 5-HT2 to Ki of 5-HT7 (selectivity). Here is the method:
Test Example 1 Binding Affinity for 5-HT7 Rector
Cultured cells capable of expressing human serotonin 5-HT7 receptor subtype were harvested in an assay buffer solution (50 mM Tris-HCl containing 10 mM MgCl2and 0.5 mM EDTA, pH 7.4) and homogenized with a Potter tripe homogenizer, and then the membrane fraction was centrifuged for 20 minutes at 39,000 g and at 4° C. The thus obtained pellet was re-suspended in 1 ml, per cells per one culture dish of 10 cm in diameter, of the assay buffer solution and homogenized again.
The binding test was carried out using 1 nM in final concentration of [^3H]-5CT (carboxamide tryptamine) and from 1 to 1,000 nM of each substance to be tested (the compound (1) of the invention among Synthesis Examples), and adjusting the final assay volume to 300 μl by adding 100 μl of the membrane fraction suspension and then incubating the reaction system at 37° C. for 30 minutes. The incubation was terminated by quickly filtering on a GF/B filter, subsequently carrying out washing with 6 ml of cold 50 mM Tris-HCl (pH 7.4). The radioactivity was measured using a liquid scintillation counter. Non-specific binding was determined by 10 μM metergoline, and the specific binding was calculated based on the difference therefrom. The IC50 value was calculated from the inhibition curve of each compound, and the binding inhibition constant Ki was calculated from the value.

T1 sequence (P14842 whole entry): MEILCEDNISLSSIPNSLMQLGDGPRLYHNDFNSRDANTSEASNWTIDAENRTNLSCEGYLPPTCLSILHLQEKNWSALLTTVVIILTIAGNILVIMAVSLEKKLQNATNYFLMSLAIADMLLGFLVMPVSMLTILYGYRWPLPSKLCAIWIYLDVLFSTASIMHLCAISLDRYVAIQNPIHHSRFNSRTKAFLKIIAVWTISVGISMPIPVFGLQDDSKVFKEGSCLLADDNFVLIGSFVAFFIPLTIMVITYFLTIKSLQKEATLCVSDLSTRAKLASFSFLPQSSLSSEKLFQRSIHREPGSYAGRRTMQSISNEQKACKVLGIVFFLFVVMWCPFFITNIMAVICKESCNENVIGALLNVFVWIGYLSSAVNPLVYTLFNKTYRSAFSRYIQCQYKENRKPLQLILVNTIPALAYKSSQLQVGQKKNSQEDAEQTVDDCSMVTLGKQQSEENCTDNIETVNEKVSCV
T2 sequence (P34969 whole entry): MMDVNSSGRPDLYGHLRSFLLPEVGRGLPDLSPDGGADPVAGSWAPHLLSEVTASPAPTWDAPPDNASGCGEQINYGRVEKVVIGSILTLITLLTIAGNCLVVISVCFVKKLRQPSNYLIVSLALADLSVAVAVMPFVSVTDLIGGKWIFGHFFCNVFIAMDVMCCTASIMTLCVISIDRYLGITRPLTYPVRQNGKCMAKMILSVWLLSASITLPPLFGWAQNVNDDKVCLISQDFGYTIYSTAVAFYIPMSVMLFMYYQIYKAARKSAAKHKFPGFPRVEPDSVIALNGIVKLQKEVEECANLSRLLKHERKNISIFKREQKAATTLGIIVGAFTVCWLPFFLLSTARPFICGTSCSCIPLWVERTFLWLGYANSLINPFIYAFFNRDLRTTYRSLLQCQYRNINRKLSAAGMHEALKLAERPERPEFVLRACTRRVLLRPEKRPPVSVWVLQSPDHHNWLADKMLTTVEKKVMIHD

What is called Ki is the equilibrium dissociation constant of an inhibitor or competing ligand from its target. Regarding `O=C1Nc2cccc3c2C1(CCCCN1CCc2c([nH]c4ccccc24)C1)CCC3` (stereo not drawn) [Compd. of Syn. Ex. 1a, 2a-[4-(2,3,4,9-Tetrahydro-1H-pyrido[3,4-b]indol-2-yl)-butyl]-2a,3,4,5-tetrahydro-1H-benz[cd]indol-2-one], the inhibitory constant (Ki) is 227 nM on 5-HT2 receptor and 7 nM in assay [1]. Moreover, the 5-HT2/5-HT7 in assay [1] came to 33.
For `O=C1Nc2cccc3c2C1(CCCCN1CCN2c4ccccc4OCC2C1)CCC3` (stereo not drawn) [Compd. of Syn. Ex. 1b, 2a-[4-(1,2,3,4,4a,5-Hexahydropyrazino[2,1-c]-1,4-benzoxazin-3-yl)-butyl]-2a,3,4,5-tetrahydro-1H-benz[cd]indol-2-one], in that order: 151 nM, 9 nM and 17.
For `CC(c1ccccc1)N1CCN(CCCCC23CCCc4cccc(c42)NC3=O)CC1` (stereo not drawn) [Compd. of Syn. Ex. 2e, 2a-(4-(4-(1-Phenyl-ethyl)-piperazin-1-yl)butyl)-2a,3,4,5-tetrahydro-1H-benz[cd]indol-2-one], in that order: 456 nM, 30 nM and 15.
For `O=C1Nc2cccc3c2C1(CCCCN1CCN2c4ccccc4[S+]([O-])CC2C1)CCC3` (stereo not drawn) [Compd. of Syn. Ex. 10b, 2a-[4-(1,2,3,4,4a,5-Hexahydro-6-oxo-6-λ^4-pyrazino[2,1-c]-1,4-benzthiazin-3-yl)-butyl]-2a,3,4,5-tetrahydro-1H-benz[cd]indol-2-one], in that order: over 1000 nM, 7 nM and over 143.
Regarding `O=C1Nc2cccc3c2C1(CCCCN1CCN(C2CCCc4ccccc42)CC1)CCC3` (stereo not drawn) [Compd. of Syn. Ex. 10d, 2a-(4-(4-(1,2,3,4-Tetrahydronaphthalen-1-yl)-piperazin-1-yl)butyl)-2a,3,4,5-tetrahydro-1H-benz[cd]indol-2-one], the inhibitory constant (Ki) on 5-HT2 receptor is over 1000 nM. Moreover, in assay [1], the inhibitory constant (Ki) was 9.8 nM and the 5-HT2/5-HT7 is over 100.
For `Cl.O=C1Nc2ccccc2N2CCN(CCCCC34CCCc5cccc(c53)NC4=O)CC12` (stereo not drawn) [Compd. of Syn. Ex. 13b, 2a-[4-(2,3,4,4a-Tetrahydro-1H-pyrazino[1,2-a]quinoxalin-5(6H)-one-3-yl)-butyl]-2a,3,4,5-tetrahydro-1H-benz[cd]indol-2-one Hydrochloride], in that order: 385 nM, 8 nM and 48.
Taken in the same sequence, the figures for `CN1C(=O)C2(CCCCN3CCc4ccccc4C3)CCCc3cccc1c32` (stereo not drawn) [Compd. of Syn. Ex. 14c, 2a-(4-(1,2,3,4-Tetrahydroisoquinolin-2-yl)butyl)-1-methyl-2a,3,4,5-tetrahydro-1H-benz[cd]indol-2-one] were over 1000 nM, 1.9 nM and over 530.
Taken in the same sequence, the figures for `COC(=O)n1c2c(c3ccccc31)CCN(CCCCC13CCCc4cccc(c41)NC3=O)C2` (stereo not drawn) [Compd. of Syn. Ex. 17a, 2a-[4-(9-Methoxycarbonyl-2,3,4,9-tetrahydro-1H-pyrido[3,4-b]indol-2-yl)-butyl]-2a,3,4,5-tetrahydro-1H-benz[cd]indol-2-one] were 807 nM, 9 nM and 90.
Consider `O=C1Nc2cccc3c2C1(CCCCN1CCc2sccc2C1)CCC3` (stereo not drawn) [Compd. of Syn. Ex. 17c, 2a-(4-(4,5,6,7-Tetrahydro-thieno[3,2-c]pyridin-5-yl)butyl)-2a,3,4,5-tetrahydro-1H-benz[cd]indol-2-one], for which the Ki is over 1000 nM at 5-HT2 receptor and 0.9 nM in assay [1]. In addition, the 5-HT2/5-HT7 in assay [1] is given as over 1100.
Taken in the same sequence, the figures for `COCn1c2c(c3ccccc31)CCN(CCCCC13CCCc4cccc(c41)NC3=O)C2` (stereo not drawn) [Compd. of Syn. Ex. 21a, 2a-[4-(9-Methoxymethyl-2,3,4,9-tetrahydro-1H-pyrido[3,4-b]indol-2-yl)-butyl]-2a,3,4,5-tetrahydro-1H-benz[cd]indol-2-one] were 524 nM, 13 nM and 40.
For `O=C1Nc2cccc3c2C1(CCCCN1CCN(C2CCCc4cnccc42)CC1)CCC3` (stereo not drawn) [Compd. of Syn. Ex. 37d, 2a-(4-(4-(5,6,7,8-Tetrahydroisoquinolin-5-yl)-piperazin-1-yl)butyl)-2a,3,4,5-tetrahydro-1H-benz[d]indol-2-one], in that order: 882 nM, 8.8 nM and 100.
